Measurements as given in patent publication US20230085307A1, “PYRIDAZINONE COMPOUND AND HERBICIDE” (NISSAN CHEMICAL CORPORATION, priority 2019, published 2023).

Key:
[1] = test system: green foxtail; assay: Test Example 4: herbicidal effect by soil treatment (Table 19, symbol G); format: in vivo, green foxtail (Setaria viridis)
In short: (§1)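 Pre-emergence style soil spray: seeds under ~1.5 cm sterilized diluvial soil received a uniform coat of emulsion diluted to the predetermined herbicide amount. Greenhouse 25–30° C; readout at week three on previously defined criteria.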

[2] = test system: lambsquarters; assay: Test Example 5: herbicidal effect by foliage application, plastic box (Table 20, symbol O); format: in vivo, lambsquarters (Chenopodium album); settings: foliage application, three weeks after application
In short: (§2)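 Plants were sown into sterilized diluvial soil under about 1.5 cm cover and kept in a greenhouse at 25° C. to 30° C. Fourteen days on, foliage received an even spray of the diluted emulsion. Herbicidal or crop effect was judged three weeks afterwards.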

[3] = test system: chickweed; assay: Test Example 4: herbicidal effect by soil treatment (Table 19, symbol P); format: in vivo, common chickweed (Stellaria media)
In short: as §1

[4] = test system: Italian ryegrass; assay: Test Example 5: herbicidal effect by foliage application, plastic box (Table 20, symbol K); format: in vivo, Italian ryegrass (Lolium multiflorum); settings: foliage application, three weeks after application
In short: as §2

[5] = test system: windgrass; assay: Test Example 4: herbicidal effect by soil treatment (Table 19, symbol L); format: in vivo, windgrass (Apera spica-venti)
In short: as §1

[6] = test system: late watergrass; assay: Test Example 1: herbicidal activity, application before weed generation under submerged conditions (Table 16, symbol A); format: in vivo, late watergrass (Echinochloa oryzicola)
In short: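 Submerged Wagner pots (alluvial soil, 4 cm water) sown with weed seeds and planted with 2.5-leaf rice seedlings; emulsifiable concentrate diluted in water applied to water surface on sowing day. Held in greenhouse at 25-30 °C; injury scored 0-5 by herbicidal rate after three weeks.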

[7] = test system: rice flat sedge; assay: Test Example 3: herbicidal effect by foliage application, Wagner pot (Table 18, symbol E); format: in vivo, rice flat sedge (Cyperus iria)
In short: (§3)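 Plants were sown in alluvial soil held under 0.1–0.5 cm standing water and grown 14 days in a greenhouse at 25–30 °C. An emulsifiable formulation, water-diluted to the set dose, was then sprayed onto the foliage, and effects were scored three weeks later using previously defined criteria.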

[8] = test system: windgrass; assay: Test Example 5: herbicidal effect by foliage application, plastic box (Table 20, symbol L); format: in vivo, windgrass (Apera spica-venti); settings: foliage application, three weeks after application
In short: as §2

[9] = test system: green foxtail; assay: Test Example 5: herbicidal effect by foliage application, plastic box (Table 20, symbol G); format: in vivo, green foxtail (Setaria viridis); settings: foliage application, three weeks after application
In short: as §2

[10] = test system: persian speedwell; assay: Test Example 5: herbicidal effect by foliage application, plastic box (Table 20, symbol R); format: in vivo, Persian speedwell (Veronica persica); settings: foliage application, three weeks after application
In short: as §2

[11] = test system: Italian ryegrass; assay: Test Example 4: herbicidal effect by soil treatment (Table 19, symbol K); format: in vivo, Italian ryegrass (Lolium multiflorum)
In short: as §1

[12] = test system: late watergrass; assay: Test Example 2: herbicidal activity, application during weed generation under submerged conditions (Table 17, symbol A); format: in vivo, late watergrass (Echinochloa oryzicola); settings: application during weed generation, submerged conditions
In short: (§4)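 In this pot test, flooded alluvial soil (water depth 4 cm) holds all three species sown as a mixture. Once seedlings have one to two leaves, the compound's emulsion, thinned with water to the intended dose, is poured on the water; grading follows after three weeks on the earlier criteria.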

[13] = test system: Japanese bulrush; assay: Test Example 2: herbicidal activity, application during weed generation under submerged conditions (Table 17, symbol B); format: in vivo, Japanese bulrush (Schoenoplectus juncoides); settings: application during weed generation, submerged conditions
In short: as §4

[14] = test system: barnyard grass; assay: Test Example 3: herbicidal effect by foliage application, Wagner pot (Table 18, symbol H); format: in vivo, barnyard grass (Echinochloa crus-galli)
In short: as §3

[15] = test system: oval-leafed pondweed; assay: Test Example 2: herbicidal activity, application during weed generation under submerged conditions (Table 17, symbol C); format: in vivo, oval-leafed pondweed (Monochoria vaginalis); settings: application during weed generation, submerged conditions
In short: as §4

[16] = test system: persian speedwell; assay: Test Example 4: herbicidal effect by soil treatment (Table 19, symbol R); format: in vivo, Persian speedwell (Veronica persica)
In short: as §1

[17] = test system: southern crabgrass; assay: Test Example 5: herbicidal effect by foliage application, plastic box (Table 20, symbol F); format: in vivo, southern crabgrass (Digitaria ciliaris); settings: foliage application, three weeks after application
In short: as §2

[18] = amount of applied herbicide 320 g/ha
[19] = amount of applied herbicide 390 g/ha

## COc1ccc(-c2oc3ccc(Cl)cc3c2-c2c(O)c(C)nn(C)c2=O)cc1 [9-002]
[1]; [18]
  G: green foxtail, herbicidal effect grade: 1 (Herbicidal rate of 5% or more and less than 20%)
[2]; 320 g/ha
  herbicidal effect on lambsquarters (O): 4 (Herbicidal rate of 70% or more and less than 90%)
[3]; [18]
  P: chickweed, herbicidal effect grade: 4 (Herbicidal rate of 70% or more and less than 90%)
[4]; 320 g/ha
  herbicidal effect on Italian ryegrass (K): 3 (Herbicidal rate of 40% or more and less than 70%)
[5]; [18]
  L: windgrass, herbicidal effect grade: 5 (Herbicidal rate of 90% or more (almost completely withered))
[6]; [18]
  Herbicidal effect, A: late watergrass: 0 (Herbicidal rate of 5% or less (almost no effect))
[7]; [18]
  Herbicidal effect on E (rice flat sedge), foliage application: 2 (Herbicidal rate of 20% or more and less than 40%)
[8]; 320 g/ha
  herbicidal effect on windgrass (L): 1 (Herbicidal rate of 5% or more and less than 20%)
[9]; 320 g/ha
  herbicidal effect on green foxtail (G): 0 (Herbicidal rate of 5% or less (almost no effect))
[10]; 320 g/ha
  herbicidal effect on persian speedwell (R): 5 (Herbicidal rate of 90% or more (almost completely withered))
[11]; [18]
  K: Italian ryegrass, herbicidal effect grade: 3 (Herbicidal rate of 40% or more and less than 70%)
[12]; AAH 320 g/ha
  herbicidal effect rating, A: late watergrass: 0 (Herbicidal rate of 5% or less (almost no effect))
[13]; AAH 320 g/ha
  herbicidal effect rating, B: Japanese bulrush: 0 (Herbicidal rate of 5% or less (almost no effect))
[14]; [18]
  Herbicidal effect on H (barnyard grass), foliage application: 3 (Herbicidal rate of 40% or more and less than 70%)
[15]; AAH 320 g/ha
  herbicidal effect rating, C: oval-leafed pondweed: 3 (Herbicidal rate of 40% or more and less than 70%)
[16]; [18]
  R: persian speedwell, herbicidal effect grade: 4 (Herbicidal rate of 70% or more and less than 90%)
[17]; 320 g/ha
  herbicidal effect on southern crabgrass (F): 0 (Herbicidal rate of 5% or less (almost no effect))

## CCCC(=O)Oc1c(C)nn(C)c(=O)c1-c1c(-c2ccc(F)cc2)oc2ccc(C)cc12 [9-005]
[1]; [19]
  G: green foxtail, herbicidal effect grade: 0 (Herbicidal rate of 5% or less (almost no effect))
[2]; 390 g/ha
  herbicidal effect on lambsquarters (O): 3 (Herbicidal rate of 40% or more and less than 70%)
[3]; [19]
  P: chickweed, herbicidal effect grade: 5 (Herbicidal rate of 90% or more (almost completely withered))
[4]; 390 g/ha
  herbicidal effect on Italian ryegrass (K): 4 (Herbicidal rate of 70% or more and less than 90%)
[5]; [19]
  L: windgrass, herbicidal effect grade: 0 (Herbicidal rate of 5% or less (almost no effect))
[6]; [19]
  Herbicidal effect, A: late watergrass: 5 (Herbicidal rate of 90% or more (almost completely withered))
[7]; [19]
  Herbicidal effect on E (rice flat sedge), foliage application: 2 (Herbicidal rate of 20% or more and less than 40%)
[8]; 390 g/ha
  herbicidal effect on windgrass (L): 0 (Herbicidal rate of 5% or less (almost no effect))
[9]; 390 g/ha
  herbicidal effect on green foxtail (G): 0 (Herbicidal rate of 5% or less (almost no effect))
[10]; 390 g/ha
  herbicidal effect on persian speedwell (R): 5 (Herbicidal rate of 90% or more (almost completely withered))
[11]; [19]
  K: Italian ryegrass, herbicidal effect grade: 0 (Herbicidal rate of 5% or less (almost no effect))
[12]; AAH 390 g/ha
  herbicidal effect rating, A: late watergrass: 0 (Herbicidal rate of 5% or less (almost no effect))
[13]; AAH 390 g/ha
  herbicidal effect rating, B: Japanese bulrush: 1 (Herbicidal rate of 5% or more and less than 20%)
[14]; [19]
  Herbicidal effect on H (barnyard grass), foliage application: 3 (Herbicidal rate of 40% or more and less than 70%)
[15]; AAH 390 g/ha
  herbicidal effect rating, C: oval-leafed pondweed: 3 (Herbicidal rate of 40% or more and less than 70%)
[16]; [19]
  R: persian speedwell, herbicidal effect grade: 3 (Herbicidal rate of 40% or more and less than 70%)
[17]; 390 g/ha
  herbicidal effect on southern crabgrass (F): 0 (Herbicidal rate of 5% or less (almost no effect))
